The values below are quoted from earlier work in patent US11142559B2, “Glucagon derivative, conjugate thereof, composition comprising same, and therapeutic use thereof” (HANMI PHARM. CO., LTD, priority 2016, dated 2021).

Molecules are shown by their SMILES.

For this data set the following is noted: when taken for one year, according to a report.

On to `CCCCCCCCCCC[C@@H](C[C@@H]1OC(=O)[C@H]1CCCCCC)OC(=O)[C@H](CC(C)C)NC=O` [Orlistat], for which the weight loss result was “about 4 kg”.
